Assay results as given in patent US20230085307A1, “PYRIDAZINONE COMPOUND AND HERBICIDE” (NISSAN CHEMICAL CORPORATION, priority 2019, published 2023).

Tests used:
late watergrass = assay: Test Example 1: herbicidal activity, application before weed generation under submerged conditions (Table 16, symbol A); assay type: in vivo, late watergrass (Echinochloa oryzicola); conditions: 320 g/ha applied herbicide
Procedure, shortened: (§1)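 Emulsion formulation, water-diluted to set dose, was put onto the flooded surface (4 cm depth, alluvial soil) the same day weeds were sown and 2.5-leaf rice transplanted. After 3 weeks at 25-30 °C under glass, each species was rated 0 (≤5% kill) to 5 (≥90% kill).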

Japanese bulrush = assay: Test Example 1: herbicidal activity, application before weed generation under submerged conditions (Table 16, symbol B); assay type: in vivo, Japanese bulrush (Schoenoplectus juncoides); conditions: 320 g/ha applied herbicide
Procedure, shortened: as §1

oval-leafed pondweed = assay: Test Example 1: herbicidal activity, application before weed generation under submerged conditions (Table 16, symbol C); assay type: in vivo, oval-leafed pondweed (Monochoria vaginalis); conditions: 320 g/ha applied herbicide
Procedure, shortened: as §1

barnyard grass [1] = assay: Test Example 3: herbicidal effect by foliage application, Wagner pot (Table 18, symbol H); assay type: in vivo, barnyard grass (Echinochloa crus-galli); conditions: amount of applied herbicide 320 g/ha
Procedure, shortened: (§2)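 Plants were sown in alluvial soil held under 0.1–0.5 cm standing water and grown 14 days in a greenhouse at 25–30 °C. An emulsifiable formulation, water-diluted to the set dose, was then sprayed onto the foliage, and effects were scored three weeks later using previously defined criteria.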

Chinese sprangletop = assay: Test Example 3: herbicidal effect by foliage application, Wagner pot (Table 18, symbol D); assay type: in vivo, chinese sprangletop (Leptochloa chinensis); conditions: amount of applied herbicide 320 g/ha
Procedure, shortened: as §2

rice flat sedge = assay: Test Example 3: herbicidal effect by foliage application, Wagner pot (Table 18, symbol E); assay type: in vivo, rice flat sedge (Cyperus iria); conditions: amount of applied herbicide 320 g/ha
Procedure, shortened: as §2

southern crabgrass [2] = assay: Test Example 4: herbicidal effect by soil treatment (Table 19, symbol F); assay type: in vivo, southern crabgrass (Digitaria ciliaris); conditions: amount of applied herbicide 320 g/ha
Procedure, shortened: (§3)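 Seeds were sown in sterilized diluvial soil and covered with about 1.5 cm of soil. An emulsion formulation diluted with water to a predetermined herbicide amount was sprayed evenly onto the soil surface. Plants grew in a greenhouse at 25° C. to 30° C., and the effect was scored three weeks after application using criteria from an earlier test.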

green foxtail [3] = assay: Test Example 4: herbicidal effect by soil treatment (Table 19, symbol G); assay type: in vivo, green foxtail (Setaria viridis); conditions: amount of applied herbicide 320 g/ha
Procedure, shortened: as §3

barnyard grass [4] = assay: Test Example 4: herbicidal effect by soil treatment (Table 19, symbol H); assay type: in vivo, barnyard grass (Echinochloa crus-galli); conditions: amount of applied herbicide 320 g/ha
Procedure, shortened: as §3

wild oat [5] = assay: Test Example 4: herbicidal effect by soil treatment (Table 19, symbol I); assay type: in vivo, wild oat (Avena fatua); conditions: amount of applied herbicide 320 g/ha
Procedure, shortened: as §3

blackgrass [6] = assay: Test Example 4: herbicidal effect by soil treatment (Table 19, symbol J); assay type: in vivo, blackgrass (Alopecurus myosuroides); conditions: amount of applied herbicide 320 g/ha
Procedure, shortened: as §3

Italian ryegrass [7] = assay: Test Example 4: herbicidal effect by soil treatment (Table 19, symbol K); assay type: in vivo, Italian ryegrass (Lolium multiflorum); conditions: amount of applied herbicide 320 g/ha
Procedure, shortened: as §3

windgrass [8] = assay: Test Example 4: herbicidal effect by soil treatment (Table 19, symbol L); assay type: in vivo, windgrass (Apera spica-venti); conditions: amount of applied herbicide 320 g/ha
Procedure, shortened: as §3

velvetleaf [9] = assay: Test Example 4: herbicidal effect by soil treatment (Table 19, symbol M); assay type: in vivo, velvetleaf (Abutilon theophrasti); conditions: amount of applied herbicide 320 g/ha
Procedure, shortened: as §3

redroot pigweed [10] = assay: Test Example 4: herbicidal effect by soil treatment (Table 19, symbol N); assay type: in vivo, redroot pigweed (Amaranthus retroflexus); conditions: amount of applied herbicide 320 g/ha
Procedure, shortened: as §3

lambsquarters [11] = assay: Test Example 4: herbicidal effect by soil treatment (Table 19, symbol O); assay type: in vivo, lambsquarters (Chenopodium album); conditions: amount of applied herbicide 320 g/ha
Procedure, shortened: as §3

chickweed [12] = assay: Test Example 4: herbicidal effect by soil treatment (Table 19, symbol P); assay type: in vivo, common chickweed (Stellaria media); conditions: amount of applied herbicide 320 g/ha
Procedure, shortened: as §3

persian speedwell [13] = assay: Test Example 4: herbicidal effect by soil treatment (Table 19, symbol R); assay type: in vivo, Persian speedwell (Veronica persica); conditions: amount of applied herbicide 320 g/ha
Procedure, shortened: as §3

southern crabgrass [14] = assay: Test Example 5: herbicidal effect by foliage application, plastic box (Table 20, symbol F); assay type: in vivo, southern crabgrass (Digitaria ciliaris); conditions: foliage application, AAH 320 g/ha, evaluated three weeks after application
Procedure, shortened: (§4)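 Plants sown in sterilized diluvial soil and grown 14 days in a greenhouse at 25° C to 30° C, then sprayed on the foliage with the compound's emulsion diluted in water to a predetermined herbicide amount. Injury to weeds and crops scored three weeks after application on a visual rating scale.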

green foxtail [15] = assay: Test Example 5: herbicidal effect by foliage application, plastic box (Table 20, symbol G); assay type: in vivo, green foxtail (Setaria viridis); conditions: foliage application, AAH 320 g/ha, evaluated three weeks after application
Procedure, shortened: as §4

barnyard grass [16] = assay: Test Example 5: herbicidal effect by foliage application, plastic box (Table 20, symbol H); assay type: in vivo, barnyard grass (Echinochloa crus-galli); conditions: foliage application, AAH 320 g/ha, evaluated three weeks after application
Procedure, shortened: as §4

wild oat [17] = assay: Test Example 5: herbicidal effect by foliage application, plastic box (Table 20, symbol I); assay type: in vivo, wild oat (Avena fatua); conditions: foliage application, AAH 320 g/ha, evaluated three weeks after application
Procedure, shortened: as §4

blackgrass [18] = assay: Test Example 5: herbicidal effect by foliage application, plastic box (Table 20, symbol J); assay type: in vivo, blackgrass (Alopecurus myosuroides); conditions: foliage application, AAH 320 g/ha, evaluated three weeks after application
Procedure, shortened: as §4

Italian ryegrass [19] = assay: Test Example 5: herbicidal effect by foliage application, plastic box (Table 20, symbol K); assay type: in vivo, Italian ryegrass (Lolium multiflorum); conditions: foliage application, AAH 320 g/ha, evaluated three weeks after application
Procedure, shortened: as §4

windgrass [20] = assay: Test Example 5: herbicidal effect by foliage application, plastic box (Table 20, symbol L); assay type: in vivo, windgrass (Apera spica-venti); conditions: foliage application, AAH 320 g/ha, evaluated three weeks after application
Procedure, shortened: as §4

velvetleaf [21] = assay: Test Example 5: herbicidal effect by foliage application, plastic box (Table 20, symbol M); assay type: in vivo, velvetleaf (Abutilon theophrasti); conditions: foliage application, AAH 320 g/ha, evaluated three weeks after application
Procedure, shortened: as §4

redroot pigweed [22] = assay: Test Example 5: herbicidal effect by foliage application, plastic box (Table 20, symbol N); assay type: in vivo, redroot pigweed (Amaranthus retroflexus); conditions: foliage application, AAH 320 g/ha, evaluated three weeks after application
Procedure, shortened: as §4

lambsquarters [23] = assay: Test Example 5: herbicidal effect by foliage application, plastic box (Table 20, symbol O); assay type: in vivo, lambsquarters (Chenopodium album); conditions: foliage application, AAH 320 g/ha, evaluated three weeks after application
Procedure, shortened: as §4

chickweed [24] = assay: Test Example 5: herbicidal effect by foliage application, plastic box (Table 20, symbol P); assay type: in vivo, common chickweed (Stellaria media); conditions: foliage application, AAH 320 g/ha, evaluated three weeks after application
Procedure, shortened: as §4

persian speedwell [25] = assay: Test Example 5: herbicidal effect by foliage application, plastic box (Table 20, symbol R); assay type: in vivo, Persian speedwell (Veronica persica); conditions: foliage application, AAH 320 g/ha, evaluated three weeks after application
Procedure, shortened: as §4

| Structure (SMILES) | Herbicidal effect on A: late watergrass (grade 0-5) (late watergrass) | Herbicidal effect on B: Japanese bulrush (grade 0-5) (Japanese bulrush) | Herbicidal effect on C: oval-leafed pondweed (grade 0-5) (oval-leafed pondweed) | herbicidal effect on H: barnyard grass (barnyard grass [1]) | herbicidal effect on D: Chinese sprangletop (Chinese sprangletop) | herbicidal effect on E: rice flat sedge (rice flat sedge) | herbicidal effect on F: southern crabgrass (southern crabgrass [2]) | herbicidal effect on G: green foxtail (green foxtail [3]) | herbicidal effect on H: barnyard grass (barnyard grass [4]) | herbicidal effect on I: wild oat (wild oat [5]) | herbicidal effect on J: blackgrass (blackgrass [6]) | herbicidal effect on K: Italian ryegrass (Italian ryegrass [7]) | herbicidal effect on L: windgrass (windgrass [8]) | herbicidal effect on M: velvetleaf (velvetleaf [9]) | herbicidal effect on N: redroot pigweed (redroot pigweed [10]) | herbicidal effect on O: lambsquarters (lambsquarters [11]) | herbicidal effect on P: chickweed (chickweed [12]) | herbicidal effect on R: persian speedwell (persian speedwell [13]) | F: southern crabgrass, herbicidal effect (criteria 0-5) (southern crabgrass [14]) | G: green foxtail, herbicidal effect (criteria 0-5) (green foxtail [15]) | also measured |
| --- | --- | --- | --- | --- | --- | --- | --- | --- | --- | --- | --- | --- | --- | --- | --- | --- | --- | --- | --- | --- | --- |
| Cc1nn(C)c(=O)c(-c2c(-c3ccc(CSC(C)C)cc3)sc3ccc(F)cc23)c1O [2-321] | 3 (Herbicidal rate of 40% or more and less than 70%) | 3 (Herbicidal rate of 40% or more and less than 70%) | 0 (Herbicidal rate of 5% or less (almost no effect)) | 5 (Herbicidal rate of 90% or more (almost completely withered)) | 3 (Herbicidal rate of 40% or more and less than 70%) | 5 (Herbicidal rate of 90% or more (almost completely withered)) | 3 (Herbicidal rate of 40% or more and less than 70%) | 4 (Herbicidal rate of 70% or more and less than 90%) | 3 (Herbicidal rate of 40% or more and less than 70%) | 0 (Herbicidal rate of 5% or less (almost no effect)) | 0 (Herbicidal rate of 5% or less (almost no effect)) | 0 (Herbicidal rate of 5% or less (almost no effect)) | 0 (Herbicidal rate of 5% or less (almost no effect)) | 1 (Herbicidal rate of 5% or more and less than 20%) | 4 (Herbicidal rate of 70% or more and less than 90%) | 3 (Herbicidal rate of 40% or more and less than 70%) | 0 (Herbicidal rate of 5% or less (almost no effect)) | 5 (Herbicidal rate of 90% or more (almost completely withered)) | 5 (Herbicidal rate of 90% or more (almost completely withered)) | 5 (Herbicidal rate of 90% or more (almost completely withered)) | H: barnyard grass, herbicidal effect (criteria 0-5) (barnyard grass [16]): 4 (Herbicidal rate of 70% or more and less than 90%); I: wild oat, herbicidal effect (criteria 0-5) (wild oat [17]): 3 (Herbicidal rate of 40% or more and less than 70%); J: blackgrass, herbicidal effect (criteria 0-5) (blackgrass [18]): 4 (Herbicidal rate of 70% or more and less than 90%); K: Italian ryegrass, herbicidal effect (criteria 0-5) (Italian ryegrass [19]): 4 (Herbicidal rate of 70% or more and less than 90%); L: windgrass, herbicidal effect (criteria 0-5) (windgrass [20]): 5 (Herbicidal rate of 90% or more (almost completely withered)); M: velvetleaf, herbicidal effect (criteria 0-5) (velvetleaf [21]): 5 (Herbicidal rate of 90% or more (almost completely withered)); N: redroot pigweed, herbicidal effect (criteria 0-5) (redroot pigweed [22]): 5 (Herbicidal rate of 90% or more (almost completely withered)); O: lambsquarters, herbicidal effect (criteria 0-5) (lambsquarters [23]): 5 (Herbicidal rate of 90% or more (almost completely withered)); P: chickweed, herbicidal effect (criteria 0-5) (chickweed [24]): 5 (Herbicidal rate of 90% or more (almost completely withered)); R: persian speedwell, herbicidal effect (criteria 0-5) (persian speedwell [25]): 5 (Herbicidal rate of 90% or more (almost completely withered)) |
| Cc1nn(C)c(=O)c(-c2c(-c3ccc(F)cc3F)sc3ccc(F)cc23)c1O [2-342] | 2 (Herbicidal rate of 20% or more and less than 40%) | 3 (Herbicidal rate of 40% or more and less than 70%) | 0 (Herbicidal rate of 5% or less (almost no effect)) | 5 (Herbicidal rate of 90% or more (almost completely withered)) | 5 (Herbicidal rate of 90% or more (almost completely withered)) | 5 (Herbicidal rate of 90% or more (almost completely withered)) | 3 (Herbicidal rate of 40% or more and less than 70%) | 4 (Herbicidal rate of 70% or more and less than 90%) | 4 (Herbicidal rate of 70% or more and less than 90%) | 0 (Herbicidal rate of 5% or less (almost no effect)) | 3 (Herbicidal rate of 40% or more and less than 70%) | 5 (Herbicidal rate of 90% or more (almost completely withered)) | 3 (Herbicidal rate of 40% or more and less than 70%) | 3 (Herbicidal rate of 40% or more and less than 70%) | 4 (Herbicidal rate of 70% or more and less than 90%) | 4 (Herbicidal rate of 70% or more and less than 90%) | 3 (Herbicidal rate of 40% or more and less than 70%) | 3 (Herbicidal rate of 40% or more and less than 70%) | 5 (Herbicidal rate of 90% or more (almost completely withered)) | 5 (Herbicidal rate of 90% or more (almost completely withered)) | H: barnyard grass, herbicidal effect (criteria 0-5) (barnyard grass [16]): 5 (Herbicidal rate of 90% or more (almost completely withered)); I: wild oat, herbicidal effect (criteria 0-5) (wild oat [17]): 4 (Herbicidal rate of 70% or more and less than 90%); J: blackgrass, herbicidal effect (criteria 0-5) (blackgrass [18]): 4 (Herbicidal rate of 70% or more and less than 90%); K: Italian ryegrass, herbicidal effect (criteria 0-5) (Italian ryegrass [19]): 5 (Herbicidal rate of 90% or more (almost completely withered)); L: windgrass, herbicidal effect (criteria 0-5) (windgrass [20]): 5 (Herbicidal rate of 90% or more (almost completely withered)); M: velvetleaf, herbicidal effect (criteria 0-5) (velvetleaf [21]): 5 (Herbicidal rate of 90% or more (almost completely withered)); N: redroot pigweed, herbicidal effect (criteria 0-5) (redroot pigweed [22]): 5 (Herbicidal rate of 90% or more (almost completely withered)); O: lambsquarters, herbicidal effect (criteria 0-5) (lambsquarters [23]): 5 (Herbicidal rate of 90% or more (almost completely withered)); P: chickweed, herbicidal effect (criteria 0-5) (chickweed [24]): 5 (Herbicidal rate of 90% or more (almost completely withered)); R: persian speedwell, herbicidal effect (criteria 0-5) (persian speedwell [25]): 5 (Herbicidal rate of 90% or more (almost completely withered)) |
